Values after ≈ are worked out from the molar mass of the structure shown. Active and inactive are the calls of the source. The calls are words filed in the database; no cut-off is given here.
Experiments:
Saccharomyces cerevisiae [1] = assay: Antifungal activity against Saccharomyces cerevisiae ATCC 24657 assessed as growth inhibition after 24 to 48 hrs by agar plate bioassay; format: functional
Saccharomyces cerevisiae [2] = assay: Fungistatic activity against Saccharomyces cerevisiae ATCC 24657 assessed as cell proliferation compound after 24 to 48 hrs by spectrophotometric bioassay; format: functional, organism-based
Saccharomyces cerevisiae [3] = assay: Fungistatic activity against Saccharomyces cerevisiae ATCC 24657 assessed as cell proliferation compound after 24 to 48 hrs by agar plate bioassay; format: functional, organism-based
Candida albicans [4] = assay: Antifungal activity against Candida albicans ATCC 32032 assessed as growth inhibition after 24 to 48 hrs by agar plate bioassay; format: functional
Cytochrome P450 1A2 = molecular target: T1, Cytochrome P450 1A2 (Homo sapiens, UniProt P05177); assay: Inhibition of human recombinant CYP1A2; format: ADME
T1 sequence (P05177 whole entry): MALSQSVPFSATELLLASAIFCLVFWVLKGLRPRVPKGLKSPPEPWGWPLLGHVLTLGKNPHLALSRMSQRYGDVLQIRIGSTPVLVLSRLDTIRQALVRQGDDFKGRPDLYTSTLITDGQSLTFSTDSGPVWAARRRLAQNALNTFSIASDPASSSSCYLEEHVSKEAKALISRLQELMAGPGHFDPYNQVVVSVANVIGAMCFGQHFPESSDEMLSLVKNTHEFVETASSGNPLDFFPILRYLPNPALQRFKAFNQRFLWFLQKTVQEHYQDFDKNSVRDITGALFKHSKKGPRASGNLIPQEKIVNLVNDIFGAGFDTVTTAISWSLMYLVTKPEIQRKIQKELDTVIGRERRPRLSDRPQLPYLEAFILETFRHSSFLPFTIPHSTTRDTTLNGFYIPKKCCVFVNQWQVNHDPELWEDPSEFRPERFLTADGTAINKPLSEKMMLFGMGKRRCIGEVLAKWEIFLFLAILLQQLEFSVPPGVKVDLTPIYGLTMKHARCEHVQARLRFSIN

Cytochrome P450 2C9 = Cytochrome P450 2C9 (Homo sapiens, UniProt P11712); assay: Inhibition of human recombinant CYP2C9; format: ADME
Cytochrome P450 2C9, sequence (P11712 whole entry): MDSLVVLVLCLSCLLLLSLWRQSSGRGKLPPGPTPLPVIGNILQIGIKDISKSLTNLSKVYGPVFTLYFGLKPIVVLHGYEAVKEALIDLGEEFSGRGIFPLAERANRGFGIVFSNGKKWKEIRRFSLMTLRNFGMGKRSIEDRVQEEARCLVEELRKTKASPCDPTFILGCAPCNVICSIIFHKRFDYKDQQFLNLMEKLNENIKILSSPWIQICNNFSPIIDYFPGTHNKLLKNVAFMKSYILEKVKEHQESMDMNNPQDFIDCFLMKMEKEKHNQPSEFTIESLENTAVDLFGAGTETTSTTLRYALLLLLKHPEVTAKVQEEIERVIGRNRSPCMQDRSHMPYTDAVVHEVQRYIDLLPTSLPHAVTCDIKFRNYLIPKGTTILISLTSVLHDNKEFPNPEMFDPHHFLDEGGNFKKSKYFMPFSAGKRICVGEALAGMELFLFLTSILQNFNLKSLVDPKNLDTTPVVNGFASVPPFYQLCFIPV

Cytochrome P450 2C19 = Cytochrome P450 2C19 (Homo sapiens, UniProt P33261); assay: Inhibition of human recombinant CYP2C19; format: ADME
Cytochrome P450 2C19, sequence (P33261 whole entry): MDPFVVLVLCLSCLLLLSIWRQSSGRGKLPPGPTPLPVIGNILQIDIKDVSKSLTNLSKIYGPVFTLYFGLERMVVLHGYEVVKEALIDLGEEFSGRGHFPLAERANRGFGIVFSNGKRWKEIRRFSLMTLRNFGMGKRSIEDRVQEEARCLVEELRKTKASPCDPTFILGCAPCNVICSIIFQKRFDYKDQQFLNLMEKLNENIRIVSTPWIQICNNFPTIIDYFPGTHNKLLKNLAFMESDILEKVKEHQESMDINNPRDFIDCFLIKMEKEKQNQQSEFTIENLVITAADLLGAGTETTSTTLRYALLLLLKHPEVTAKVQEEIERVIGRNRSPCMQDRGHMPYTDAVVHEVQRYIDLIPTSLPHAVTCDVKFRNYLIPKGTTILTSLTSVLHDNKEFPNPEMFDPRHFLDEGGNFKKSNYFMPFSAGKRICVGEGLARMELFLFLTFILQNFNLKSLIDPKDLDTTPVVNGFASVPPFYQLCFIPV

Cytochrome P450 2D6 = Cytochrome P450 2D6 (Homo sapiens, UniProt P10635); assay: Inhibition of human recombinant CYP2D6; format: ADME
Cytochrome P450 2D6, sequence (P10635 whole entry): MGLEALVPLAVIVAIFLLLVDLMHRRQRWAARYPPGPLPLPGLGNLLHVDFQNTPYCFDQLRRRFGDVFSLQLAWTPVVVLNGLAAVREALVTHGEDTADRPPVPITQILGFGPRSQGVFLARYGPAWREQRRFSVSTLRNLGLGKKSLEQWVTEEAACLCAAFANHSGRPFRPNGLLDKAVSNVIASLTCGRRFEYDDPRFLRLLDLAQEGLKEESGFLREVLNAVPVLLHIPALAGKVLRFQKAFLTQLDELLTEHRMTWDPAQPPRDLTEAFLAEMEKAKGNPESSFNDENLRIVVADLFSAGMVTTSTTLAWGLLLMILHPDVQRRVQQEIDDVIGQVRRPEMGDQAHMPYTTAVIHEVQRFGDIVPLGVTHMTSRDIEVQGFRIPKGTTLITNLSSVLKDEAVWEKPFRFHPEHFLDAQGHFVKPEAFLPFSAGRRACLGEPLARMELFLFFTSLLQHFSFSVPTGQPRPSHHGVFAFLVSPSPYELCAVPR

Cytochrome P450 3A4 = Cytochrome P450 3A4 (Homo sapiens, UniProt P08684); assay: Inhibition of human recombinant CYP3A4; format: ADME
Cytochrome P450 3A4, sequence (P08684 whole entry): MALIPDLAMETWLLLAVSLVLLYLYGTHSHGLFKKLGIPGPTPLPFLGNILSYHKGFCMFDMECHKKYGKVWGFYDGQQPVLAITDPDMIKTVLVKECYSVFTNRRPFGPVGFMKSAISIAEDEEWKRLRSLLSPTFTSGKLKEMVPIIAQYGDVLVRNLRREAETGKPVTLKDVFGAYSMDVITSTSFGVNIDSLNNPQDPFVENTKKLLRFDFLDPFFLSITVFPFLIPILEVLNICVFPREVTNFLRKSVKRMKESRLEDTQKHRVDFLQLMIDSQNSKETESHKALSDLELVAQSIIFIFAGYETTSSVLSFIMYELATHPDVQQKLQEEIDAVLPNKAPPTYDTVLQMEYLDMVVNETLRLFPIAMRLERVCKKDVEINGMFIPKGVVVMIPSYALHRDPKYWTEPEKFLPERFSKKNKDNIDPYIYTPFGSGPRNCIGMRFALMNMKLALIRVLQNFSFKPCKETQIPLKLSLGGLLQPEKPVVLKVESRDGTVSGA

Candida albicans [5] = assay: Antifungal activity against Candida albicans assessed as morphogenetic transformation after 3 hrs by phase-contrast microscopy; format: functional
Saccharomyces cerevisiae [6] = assay: Antifungal activity against Saccharomyces cerevisiae ATCC 24657 assessed as growth inhibition at 90.7 uM after 24 hrs by agar plate bioassay; format: functional, organism-based
Saccharomyces cerevisiae [7] = assay: Antifungal activity against Saccharomyces cerevisiae ATCC 24657 assessed as growth inhibition at 90.7 uM after 24 hrs by spectrophotometric bioassay; format: functional, organism-based
Saccharomyces cerevisiae [8] = assay: Antifungal activity against Saccharomyces cerevisiae ATCC 24657 assessed as growth at 90.7 uM after 48 hrs by agar plate bioassay relative to control; format: functional
Saccharomyces cerevisiae [9] = assay: Antifungal activity against Saccharomyces cerevisiae ATCC 24657 assessed as growth at 90.7 uM after 48 hrs by spectrophotometric bioassay relative to control; format: functional
Saccharomyces cerevisiae [10] = assay: Fungistatic activity against Saccharomyces cerevisiae ATCC 24657 assessed as cell proliferation at 90.7 uM after 24 hrs by spectrophotometric bioassay; format: functional, organism-based
Saccharomyces cerevisiae [11] = assay: Fungistatic activity against Saccharomyces cerevisiae ATCC 24657 assessed as cell proliferation at 90.7 uM after 24 hrs by agar plate bioassay relative to control; format: functional; settings: ATCC 24657, 24 h
Saccharomyces cerevisiae [12] = assay: Fungistatic activity against Saccharomyces cerevisiae ATCC 24657 assessed as cell growth at 90.7 uM after 48 hrs by spectrophotometric bioassay; format: functional, organism-based
Saccharomyces cerevisiae [13] = assay: Antifungal activity against Saccharomyces cerevisiae ATCC 24657 assessed as growth inhibition after 24 to 48 hrs by spectrophotometric bioassay; format: functional
Saccharomyces cerevisiae [14] = assay: Antifungal activity against Saccharomyces cerevisiae ATCC 24657 assessed as growth inhibition at 31.2 uM after 24 to 48 hrs by agar plate bioassay; format: functional, organism-based
Saccharomyces cerevisiae [15] = assay: Antifungal activity against Saccharomyces cerevisiae ATCC 24657 assessed as growth inhibition at 31.2 uM after 24 to 48 hrs by spectrophotometric bioassay; format: functional, organism-based

Structure (SMILES)	MIC (Saccharomyces cerevisiae [1])	further results
CC[C@@H]1C(=O)OC[C@@H]1Cc1cncn1C [PILOCARPINE]	> 200 µM	–
COc1ccc(CC2c3cc(OC)c(OC)cc3CCN2C=C(C#N)C#N)cc1OC (stereo unspecified)	> 200 µM	–
Cc1ccc(C(=O)N(C)Cc2ccco2)c(C2CCN(C(=O)c3cc(O)nc4ccccc34)CC2)n1	> 200 µM	–
CC1=C(C#N)C(c2sc3ccccc3c2C)C2=C(CCCC2=O)N1 (stereo unspecified)	> 250 µM	MIC50 (Saccharomyces cerevisiae [1]): 118 µM (≈ 39.5 µg/mL)
O=[N+]([O-])c1ccc(Cc2ccncc2)cc1	> 200 µM	MIC50 (Saccharomyces cerevisiae [1]): 120 µM (≈ 25.7 µg/mL)
Cc1ccc(C(=O)N(C)Cc2ccco2)c(C2CCN(C(=O)/C=C/c3ccc4c(c3)OCO4)CC2)n1	> 200 µM	–
Cc1ccc(C(=O)N(C)Cc2ccco2)c(C2CCN(C(=O)/C=C/c3cccs3)CC2)n1	> 200 µM	–
COc1ccc(C(=O)CCC(=O)N2CCC(c3nc(C(=O)Nc4ccc(O)c(C)c4C)cs3)CC2)cc1	> 200 µM	–
Cc1nn(C)c(=O)c2noc(/C=C/c3ccsc3)c12	120 µM (≈ 32.8 µg/mL)	MIC50 (Saccharomyces cerevisiae [1]): 35 µM (≈ 9.57 µg/mL); Activity (Saccharomyces cerevisiae [2]): inactive; Activity (Saccharomyces cerevisiae [3]): inactive
Cc1n[nH]c(=O)c2noc(/C=C/c3ccsc3)c12	> 200 µM	–
Cc1ccc(Cc2cc(C)ncc2C)c(C)c1	100 µM (≈ 22.5 µg/mL)	MIC50 (Saccharomyces cerevisiae [1]): 14 µM (≈ 3.15 µg/mL)
C=CCOc1ccc(/C=C2\CCc3cc(OC)ccc3C2=O)cc1	> 200 µM	–
C=CCn1c(SCC(=O)c2ccccc2)nc2sc3c(c2c1=O)CCC(C)C3 (stereo unspecified)	> 200 µM	–
N#CC(c1ccc2c(c1)OCO2)N(Cc1ccccc1)C(=O)c1sc2ccccc2c1Cl (stereo unspecified)	> 200 µM	–
Cc1c(-c2ccccc2)sc(/N=C/c2cc(Cl)cc(Cl)c2O)c1C#N	–	MIC (Candida albicans [4]): 40 µM (≈ 15.5 µg/mL)
COC(=O)c1cscc1NC(=O)CC(CC(=O)O)c1ccccc1 (stereo unspecified)	> 200 µM	–
Cc1ccc(C(=O)CC(Sc2ccc3ccccc3c2)c2ccsc2)cc1 (stereo unspecified)	> 150 µM	–
O=C(c1ccncc1)c1ccc(Cl)cc1	> 200 µM	MIC50 (Saccharomyces cerevisiae [1]): 100 µM (≈ 21.8 µg/mL)
Clc1ccc(Cc2ccncc2)cc1	150 µM (≈ 30.6 µg/mL)	MIC50 (Saccharomyces cerevisiae [1]): 18 µM (≈ 3.67 µg/mL)

Structure (SMILES)	MIC (Saccharomyces cerevisiae [1])	further results
CCCN(CCC)S(=O)(=O)c1ccc(C(=O)N/N=C/c2ccc(N(C)CCC#N)cc2)cc1	> 200 µM	–
COc1ccc(-c2sc(/N=C/c3ccc(-c4ccccc4)cc3)c(C#N)c2C)cc1OC	–	MIC (Candida albicans [4]): 8 µM (≈ 3.51 µg/mL); IC50 (Cytochrome P450 1A2): 26 µM; IC50 (Cytochrome P450 2C9): 1.4 µM; IC50 (Cytochrome P450 2C19): 2.3 µM; IC50 (Cytochrome P450 2D6): > 100 µM; IC50 (Cytochrome P450 3A4): > 100 µM
Cc1ccc(C(=O)N(C)Cc2ccco2)c(C2CCN(C(=O)c3cc4c(C)nn(C)c4s3)CC2)n1	> 200 µM	–
CN(CCC#N)c1ccc(/C=N/c2ccc(C(=O)O)cc2)cc1	> 200 µM	–
Cc1nc(SCc2c(F)cccc2Cl)c(C#N)c(C)c1Cc1c(F)cccc1Cl	> 200 µM	–
Clc1ccc(COC(Cn2ccnc2)c2ccc(Cl)cc2Cl)c(Cl)c1 (stereo unspecified) [MICONAZOLE]	–	MIC (Candida albicans [5]): 76.9 µM (≈ 32 µg/mL)
CCC(C)n1ncn(-c2ccc(N3CCN(c4ccc(OCC5COC(Cn6cncn6)(c6ccc(Cl)cc6Cl)O5)cc4)CC3)cc2)c1=O (stereo unspecified) [ITRACONAZOLE]	–	growth inhibition (GI) (Saccharomyces cerevisiae [6]): inactive; growth inhibition (GI) (Saccharomyces cerevisiae [7]): inactive; fold change (FC) (Saccharomyces cerevisiae [8]): 1.5; fold change (FC) (Saccharomyces cerevisiae [9]): 1.5; Activity (Saccharomyces cerevisiae [10]): Active; inhibition at 90.7 µM (Saccharomyces cerevisiae [11]): 95%; Activity (Saccharomyces cerevisiae [12]): inactive; MIC (Candida albicans [5]): > 90.7 µM
Cc1n[nH]c(=O)c(N)c1-c1cc(-c2ccsc2)[nH]n1	> 200 µM	–
Cc1nc(C)c(C(=O)N2CCC(c3nc(C(=O)N(CCC#N)Cc4ccco4)cs3)CC2)s1	> 200 µM	–
CN(CCC#N)c1ccc(/C=C2\CC/C(=C\c3ccc(N(C)CCC#N)cc3)C2=O)cc1	> 200 µM	–
C=CCNc1ncnc2sc3c(c12)CCCC3	–	growth inhibition (GI) (Saccharomyces cerevisiae [1]): inactive; MIC (Saccharomyces cerevisiae [13]): 100 µM (≈ 24.5 µg/mL); MIC50 (Saccharomyces cerevisiae [13]): 9.98 µM (≈ 2.45 µg/mL); Activity (Saccharomyces cerevisiae [2]): inactive; Activity (Saccharomyces cerevisiae [3]): inactive
COC(C)(C)CCSc1nc2ccc(NC(=O)CCCC(=O)NCc3ccco3)cc2s1	> 200 µM	–
CN(CCC#N)c1ccc(C=C(C#N)C#N)cc1	> 200 µM	–
CCOC(=O)/C(C#N)=C/c1ccc(N(C)CCC#N)cc1	> 200 µM	–
OC(Cn1cncn1)(Cn1cncn1)c1ccc(F)cc1F [FLUCONAZOLE]	–	MIC (Candida albicans [5]): 104 µM (≈ 32 µg/mL)
CC(=O)N1CCN(c2ccc(OCC3COC(Cn4ccnc4)(c4ccc(Cl)cc4Cl)O3)cc2)CC1 (stereo unspecified)	–	growth inhibition (GI) (Saccharomyces cerevisiae [14]): Active; growth inhibition (GI) (Saccharomyces cerevisiae [15]): Active; Activity (Saccharomyces cerevisiae [2]): inactive; Activity (Saccharomyces cerevisiae [3]): inactive
COC(=O)c1scc(C)c1NC(=O)c1ccc(C(C)(C)C)cc1	> 200 µM	–
COc1ccc(-c2sc(/N=C/c3cc(Br)cc(Br)c3O)c(C#N)c2C)cc1OC	–	MIC (Candida albicans [4]): > 100 µM
CCC(C)(C)c1ccc(CC(C)CN2C[C@@H](C)O[C@@H](C)C2)cc1 (stereo partly specified) [AMOROLFINE]	–	MIC (Candida albicans [5]): 202 µM (≈ 64 µg/mL)

Structure (SMILES)	MIC (Saccharomyces cerevisiae [1])	further results
Cc1cccc(C(=O)Nc2sc3c(c2C(N)=O)CCCC3)c1	> 200 µM	MIC50 (Saccharomyces cerevisiae [13]): 50 µM (≈ 15.7 µg/mL)
Cc1ccc(C(=O)N(C)Cc2ccco2)c(C2CCN(C(=O)c3cc(C)c(C)o3)CC2)n1	> 200 µM	–
N#CC(C#N)=CNc1ccc2oc3ncccc3c(=O)c2c1	> 200 µM	–
N#CCN1CCN(c2nc3ccc(Cl)cc3s2)CC1	> 200 µM	MIC50 (Saccharomyces cerevisiae [1]): 27 µM (≈ 7.91 µg/mL)
C=CCSc1ncccc1C1=NN(CC(=O)N(CCC(=O)OCC)Cc2ccco2)C(=O)C1	> 200 µM	–
COc1cc(C(=O)N(CCC#N)C2CC(C)CC(C)(C)C2)cc(OC)c1OC (stereo unspecified)	> 200 µM	–
N#C/C(=C\c1ccc(C(F)(F)F)cc1)c1ccc(OCc2c(F)cccc2Cl)cc1	> 200 µM	–
O=C(/C=C\c1ccco1)NCC(=O)N1CCC(c2nccn2CCc2ccsc2)CC1	> 200 µM	–
CC1CCc2c(sc(NC(=O)Sc3nnc(-c4ccc(Cl)cc4)n3-c3ccccc3)c2C#N)C1 (stereo unspecified)	–	MIC (Candida albicans [4]): > 100 µM
COc1ccc(NC(=S)N/N=C/c2ccc(N(C)CCC#N)cc2)cc1	> 200 µM	–
c1ccc(Cc2ccncc2)cc1	> 200 µM	MIC50 (Saccharomyces cerevisiae [1]): 100 µM (≈ 16.9 µg/mL)
COc1nc2c(c(-c3ccc[nH]3)c1C#N)Cc1ccccc1-2	> 200 µM	–
FC(F)(F)Oc1ccc(C2c3ccsc3CCN2Cc2ccc3c(c2)CCO3)cc1 (stereo unspecified)	–	MIC50 (Saccharomyces cerevisiae [1]): 120 µM (≈ 51.8 µg/mL)
CSc1sc(C(=O)N2CCC3(CCN(C(=O)CNC(=O)c4ccco4)CC3)C2)c2c1C(=O)CCC2	> 200 µM	–
CN(CCC#N)c1ccc(/C=N/NC(=O)N/N=C/c2ccc(N(C)CCC#N)cc2)cc1	> 200 µM	–
CCOc1ccc(/N=C/c2ccc(N(C)CCC#N)cc2)cc1	> 200 µM	–
CN(C/C=C/C#CC(C)(C)C)Cc1cccc2ccccc12 [TERBINAFINE]	–	MIC (Candida albicans [5]): 439 µM (≈ 128 µg/mL)
O=C(CC(Sc1ccc2ccccc2c1)c1ccsc1)c1ccc(Cl)cc1 (stereo unspecified)	> 200 µM	–

Reference: ChEMBL document CHEMBL1926617, “Antifungal activities of novel non-azole molecules against S. cerevisiae and C. albicans” (Eur J Med Chem, 2012)
